Data reported in US11730743B2, “Protection of cells from degeneration and treatment of geographic atrophy” (University of Kentucky Research Foundation, priority 2012, dated 2023).

How the values were obtained:
wild-type mice = assay: Alu RNA- or pAlu-induced RPE degeneration after subretinal injection (fundus photographs, ZO-1 flat mounts); type: in vivo; settings: subretinal pAlu, test agent intravitreous
Description: Subretinal injection and imaging. Subretinal injections (1 μL) in mice were performed using a Pico-Injector (PLI-100, Harvard Apparatus). In vivo transfection of plasmids was achieved using 10% Neuroporter (Genlantis). Fundus imaging was performed on a TRC-50 IX camera (Topcon) linked to a digital imaging system (Sony). Immunolabeling of RPE flat mounts was performed using antibodies against human zonula occludens-1 (Invitrogen).
Fundus photography. Retinal photographs of dilated mouse eyes were taken with a TRC-50 IX camera (Topcon) linked to a digital imaging system (Sony).
Immunolabeling. Human eyes fixed in 2-4% paraformaldehyde were prepared as eyecups, cryoprotected in 30% sucrose, embedded in optimal cutting temperature compound (Tissue-Tek OCT; Sakura Finetek), and cryosectioned into 10 μm sections. Depigmentation was achieved using 0.25% potassium permanganate and 0.1% oxalic acid. Immunohistochemical staining was performed with the rabbit antibody against NLRP3 (1:100, Sigma Aldrich) or rabbit antibody against Caspase-1 (prediluted, AbCam). Isotype IgG was substituted for the primary antibody to assess the specificity of the staining. Bound antibody was detected with biotin-conjugated secondary antibodies, followed by incubation with ABC reagent and visualized by Vector Blue (Vector Laboratories). Levamisole (Vector Laboratories) was used to block endogenous alkaline phosphatase activity. Slides were washed in PBS, counterstained with neutral red (Fisher Scientific), rinsed with deionized water, air dried, and then mounted in Vectamount (Vector Laboratories). Fluorescent labeling of human tissue was performed with the rabbit antibody against PYCARD (1:50, Clone N-15, Santa Cruz Biotechnology). Immunolabeling was visualized by fluorescently conjugated anti-rabbit secondary antibody (Invitrogen). Tissue autofluorescence was quenched by incubating the sections in 0.3% Sudan black (Fisher Scientific). Sections were mounted in Vectashield with DAPI (Vector Laboratories). Mouse RPE/choroid flat mounts were fixed with 4% paraformaldehyde or 100% methanol, stained with rabbit antibodies against human zonula occludens-1 (1:100, Invitrogen) and visualized with Alexa594 (Invitrogen). All images were obtained using the Leica SP-5 or Zeiss Axio Observer Z1 microscopes.
Subretinal injection. Subretinal injections (1 μL) in mice were performed using a Pico-Injector (PLI-100, Harvard Apparatus). In vivo transfection of plasmids coding for two different Alu sequences (pAlu) or empty control vector (pNull) (Bennett et al., 2008; Kaneko et al., 2011; Shaikh et al., 1997) was achieved using 10% Neuroporter (Genlantis). AAV1-BEST1-Cre (Alexander and Hauswirth, 2008) or AAV1-BEST1-GFP were injected at […] pfu/mL and in vitro transcribed Alu RNA was injected at 0.3 mg/mL.
Drug treatments. siRNAs formulated in siRNA buffer (20 mM KCL, 0.2 mM MgCl2 in HEPES buffer at pH 7.5; Dharmacon) or phosphate buffered saline (PBS; Sigma-Aldrich); the TLR4 antagonist Ultra Pure Rhodobacter sphaeroides LPS (LPS-RS, InvivoGen), a peptide inhibitor of MyD88 homodimerization IMG-2005 (IMGENEX), control inhibitor (IMGENEX), recombinant IL-18 (Medical & Biological Laboratories), neutralizing rat antibodies against mouse IL-1β (IMGENEX), neutralizing rat antibodies against mouse IL-18 (Medical & Biological Laboratories), isotype control IgGs (R&D Systems or eBioscience as appropriate), Caspase-1 inhibitor Z-WEHD-FMK (R&D Systems), Caspase-3 inhibitor Z-DEVD-FMK (R&D Systems), Caspase control inhibitor Z-FA-FMK (R&D Systems), (2R,4R)-APDC (Enzo Life Sciences), Glipizide (Sigma-Aldrich), Glyburide (Sigma-Aldrich), and P2X7 receptor antagonist A438079 (Tocris Bioscience) were dissolved in phosphate buffered saline (PBS; Sigma-Aldrich) or dimethyl sulfoxide (DMSO; Sigma-Aldrich), and injected into the vitreous humor in a total volume of 1 μL with a 33-gauge Exmire microsyringe (Ito Corporation). […]

IL18 = IL18 mRNA by real-time RT-PCR in human RPE cells; type: cell-based
NLRP3 = NLRP3 mRNA by real-time RT-PCR in human RPE cells; type: cell-based
Source text: mRNA abundance. Transcript abundance was quantified by real-time RT-PCR using an Applied Biosystems 7900 HT Fast Real-Time PCR system using the 2^−ΔΔct method.
Real-time PCR. Total RNA was extracted from tissues or cells using Trizol reagent (Invitrogen) according to manufacturer's recommendations, DNase treated and reverse transcribed (QuantiTect, Qiagen). The RT products (cDNA) were amplified by real-time quantitative PCR (Applied Biosystems 7900 HT Fast Real-Time PCR system) with Power SYBR green Master Mix. Oligonucleotide primers specific for human IL1B, human NLRP3, human 18S rRNA, mouse Myd88, mouse Nlrp3, mouse 1118, and mouse 18S rRNA were used. The QPCR cycling conditions were 50° C. for 2 min, 95° C. for 10 min followed by 40 cycles of a two-step amplification program (95° C. for 15 s and 58° C. for 1 min). At the end of the amplification, melting curve analysis was applied using the dissociation protocol from the Sequence Detection system to exclude contamination with unspecific PCR products. […] For negative controls, no RT products were used as templates in the QPCR and verified by the absence of gel-detected bands. Relative expressions of target genes were determined by the 2^−ΔΔct method.

N[C@@]1(C(=O)O)CN[C@@H](C(=O)O)C1 [APDC, (2R,4R)-APDC]
blocked: pAlu-induced RPE degeneration (wild-type mice) | pAlu-induced IL18 mRNA upregulation (IL18) | pAlu-induced NLRP3 mRNA upregulation (NLRP3)
